This assay addresses T1, RANTES/MIP-1α chemokine receptor (CCR1) in THP-1 cell membranes (Homo sapiens, UniProt P32246).
T1 construct: Membranes were prepared from THP-1 cells (ATCC #TIB202); host or cells: THP-1 cells (membrane preparation)
T1 sequence (P32246 1-355): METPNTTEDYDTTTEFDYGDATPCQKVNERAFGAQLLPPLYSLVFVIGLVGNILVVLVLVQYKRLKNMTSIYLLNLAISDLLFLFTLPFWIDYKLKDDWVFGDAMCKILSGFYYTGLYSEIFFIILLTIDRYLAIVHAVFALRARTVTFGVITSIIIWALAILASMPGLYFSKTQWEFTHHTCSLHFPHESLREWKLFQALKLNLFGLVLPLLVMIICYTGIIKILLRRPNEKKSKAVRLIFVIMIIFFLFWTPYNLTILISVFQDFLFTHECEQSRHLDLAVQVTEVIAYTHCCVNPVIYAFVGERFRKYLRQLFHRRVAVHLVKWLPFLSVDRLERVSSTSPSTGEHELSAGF
Nature of the assay: Receptor binding assay: 125I-RANTES or 125I-MIP-1α binding to THP-1 cell membranes. The following applies: inhibitor concentration required for 50% inhibition of specific binding; 125I-RANTES or 125I-MIP-1α as ligand, THP-1 cell membranes; read-out: IC50.
In general, IC50 refers to the concentration needed to halve the response being measured. Take `CC1(C)CN(CCC=C2c3cc(OCCN4CCOCC4)ccc3OCc3ncccc32)CCC1(O)c1ccc(Cl)cc1` (stereo not drawn) [Example 559, 4-(4-Chloro-phenyl)-3,3-dimethyl-1-{3-[7-(2-morpholin-4-yl-ethoxy)-11H-10-oxa-1-aza-dibenzo[a,d]cyclohepten-5-ylidene]-propyl}-piperidin-4-ol]: the IC50 is < 1000 nM.

Turning to “4-(4-Chlorophenyl)-1-[3-(5,11-dihydro-7-(2-propoxy)carbonyl-[1]benzoxepino[2,3-b]pyridin-5-ylidene) propyl]piperidine-4-ol [Example 428]”, the IC50 was < 1000 nM. In the case of `CC(C)(O)c1ccc2c(c1)C(=CCCN1CCC(O)(c3ccc(Cl)cc3)C(C)(C)C1)c1ccc[n+]([O-])c1CO2` (stereo not drawn) [Example 523, 4-(4-Chloro-phenyl)-1-{3-[7-(1-hydroxy-1-methyl-ethyl)-1-oxy-11H-10-oxa-1-aza-dibenzo[a,d]cyclohepten-5-ylidene]-propyl}-3,3-dimethyl-piperidin-4-ol] it was < 1000 nM; in that of “1-[3-(8-Carboxy-5,11-dihydro[1]benzoxepino[2,3-b]pyridin-5-ylidene)propyl]-4-(4-chlorophenyl)piperidine [Example 161]”, < 10000 nM; in that of `CCN(CC)CCOCC1(C)CN(CCC=C2c3cc(C(C)(C)O)ccc3OCc3ncccc32)CCC1(O)c1ccc(Cl)cc1` (stereo not drawn) [Example 486], < 1000 nM. With `CCOC(=O)CN1C(=O)c2ccccc2C(=CCCN2CCC(O)(c3ccc(Cl)cc3)CC2)c2ccccc21` [Example 18, 4-(4-Chlorophenyl)-1-[3-(6,11-dihydro-5-ethoxycarbonymethyl-6-oxo-5H-dibenz[b,e]azepin-11-ylidene)propyl]piperidin-4-ol], the half-inhibitory concentration (IC50) is < 1000 nM. In the case of “4-(4-Chlorophenyl)-1-[3-(5,11-dihydro-7-methoxy[1]benzoxepino[2,3-b]pyridin-5-ylidene)propyl]piperidine [Example 65]” it was < 1000 nM; in that of `CC(C)(O)c1ccc2c(c1)C(=CCCN1CCC(O)(c3ccccc3Cl)CC1)c1cccnc1CO2` [Example 489, 4-(2-Chloro-phenyl)-1-{3-[7-(1-hydroxy-1-methyl-ethyl)-11H-10-oxa-1-azadibenzo[a,d]cyclohepten-5-ylidene]-propyl}-piperidin-4-ol], < 10000 nM.

For the compound “4-(4-Chlorophenyl)-1-[3-(7-(2-furyl)-5,11-dihydro[1]benzoxepino[2,3-b]pyridin-5-ylidene)propyl]piperidin-4-ol [Example 292]”, the IC50 was < 1000 nM. As for `CC(C)(O)c1ccc2c(c1)C(=CCCN1CCC(O)(c3ccc(Cl)c(Cl)c3)CC1)c1cccnc1CO2` [Example 491, 4-(3,4-Dichloro-phenyl)-1-{3-[7-(1-hydroxy-1-methyl-ethyl)-11H-10-oxa-1-aza-dibenzo[a,d]cyclohepten-5-ylidene]-propyl}-piperidin-4-ol], the figure is < 1000 nM; as for “Methyl 1-[3-(5,11-dihydro-7-methoxy[1]benzoxepino[2,3-b]pyridin-5-ylidene)propyl]-4-phenylpiperidin-4-carboxylate [Example 188]”, > 10000 nM. Consider `CC(C)(O)c1ccc2c(c1)C(=CCCN1CCC(N(Cc3ccc(Cl)cc3)S(C)(=O)=O)C1)c1cccnc1CO2` (stereo not drawn) [Example 571, N-(4-Chloro-benzyl)-N-(1-{3-[7-(1-hydroxy-1-methyl-ethyl)-11H-10-oxa-1-aza-dibenzo[a,d]cyclohepten-5-ylidene]-propyl}-pyrrolidin-3-yl)-methanesulfonamide], for which the IC50 was < 10000 nM. In the case of `CC(C)(O)c1ccc2c(c1)C(=CCCN1CCN(c3ccc(Cl)cc3)C(C(N)=O)C1)c1cccnc1CO2` (stereo not drawn) [Example 544, 1-(4-Chloro-phenyl)-4-{3-[7-(1-hydroxy-1-methyl-ethyl)-11H-10-oxa-1-aza-dibenzo[a,d]cyclohepten-5-ylidene]-propyl}-piperazine-2-carboxylic acid amide] it was < 10000 nM; in that of `CC(C)(O)c1ccc2c(c1)C(=CCCN1CCC(F)(c3ccc(Cl)cc3)C(O)C1)c1cccnc1CO2` (stereo not drawn) [Example 468, 4-(4-Chloro-phenyl)-4-fluoro-1-{3-[7-(1-hydroxy-1-methyl-ethyl)-11H-10-oxa-1-aza-dibenzo[a,d]cyclohepten-5-ylidene]-propyl}-piperidin-3-ol], < 1000 nM; in that of `CC(C)CN(Cc1ccc(Cl)cc1)C1CCN(CCC=C2c3cc(C(C)(C)O)ccc3OCc3ncccc32)C1` (stereo not drawn) [Example 550, 2-[5-(3-{3-[(4-Chloro-benzyl)-isobutyl-amino]-pyrrolidin-1-yl}-propylidene)-5,11-dihydro-10-oxa-1-aza-dibenzo[a,d]cyclohepten-7-yl]-propan-2-ol], < 1000 nM.

For the compound `CC(C)(O)c1ccc2c(c1)C(=CCCN1CC[C@H](OCc3ccc(Cl)cc3)C1)c1cccnc1CO2` [Example 529, (S)-2-(5-{3-[3-(4-Chloro-benzyloxy)-pyrrolidin-1-yl]-propylidene}-5,11-dihydro-10-oxa-1-aza-dibenzo[a,d]cyclohepten-7-yl)-propan-2-ol], the 50% inhibitory concentration (IC50) is < 20000 nM. Turning to `COCCOc1ccc2c(c1)C(=CCCN1CCC(O)(c3ccc(Cl)cc3)C(C)(C)C1)c1cccnc1CO2` (stereo not drawn) [Example 508, 4-(4-Chloro-phenyl)-1-{3-[7-(2-methoxy-ethoxy)-11H-10-oxa-1-aza-dibenzo [a,d]cyclohepten-5-ylidene]-propyl}-3,3-dimethyl-piperidin-4-ol], the IC50 was < 1000 nM.

On to `CC(C)(O)c1ccc2c(c1)C(=CCCN1CCC(C(=O)NCc3ccc(Cl)cc3)C1)c1cccnc1CO2` (stereo not drawn) [Example 530], for which the IC50 is < 20000 nM. For the compound `CC(C)(O)c1ccc2c(c1)C(=CCCN1CCC(N(CC(=O)O)Cc3ccc(Cl)cc3)CC1)c1cccnc1CO2` [Example 501, [(4-Chloro-benzyl)-(1-{3-[7-(1-hydroxy-1-methyl-ethyl)-11H-10-oxa-1-aza-dibenzo[a,d]cyclohepten-5-ylidene]-propyl}-piperidin-4-yl)-amino]-acetic acid], the IC50 is < 10000 nM. In the case of “4-(4-Chlorophenyl)-1-[3-(5,11-dihydro-7-(1-ethoxycarbonyl-1-methylethyl)oxy[1]benzoxepino[2,3-b]pyridin-5-ylidene)propyl]piperidin-4-ol [Example 138]” it was < 1000 nM; in that of `O=C1Nc2ncccc2C(=CCCN2CCC(O)(c3ccc(Cl)cc3)CC2)c2ccccc21` [Example 55, 4-(4-Chlorophenyl)-1-[3-(10,11-dihydro-10-oxo-5H-pyrido[2,3-c][2]benzazepin-5-ylidene)propyl]piperidin-4-ol], < 1000 nM; in that of `CC(C)(O)c1ccc2c(c1)C(=CCCN1CCC(O)(c3ccc(Cl)cc3)CC1)c1cccnc1CO2` [Example 242, 4-(4-Chlorophenyl)-1-[3-(5,11-dihydro-7-(1-hydroxy-1-methyl)ethyl[1]benzoxepino[2,3-b]pyridin-5-ylidene)propyl]piperidin-4-ol], < 1000 nM.

As for “1-[3-(7-(2-Carboxy)ethenyl-5,11-dihydro[1]benzoxepino[2,3-b]pyridin-5-ylidene)propyl]-4-(4-chlorophenyl)piperidin-4-ol [Example 172]”, the IC50 is < 1000 nM.

As for “1-(4-Chlorophenylsulfonyl)-4-[3-(5,11-Dihydro-7-methoxy[1]benzoxepino[2,3-b]pyridin-5-ylidene)propyl]piperazine [Example 192]”, the IC50 is > 10000 nM.

As to `CCNC(=O)CN(Cc1ccc(Cl)cc1)C1CCN(CCC=C2c3cc(C(C)(C)O)ccc3OCc3ncccc32)C1` (stereo not drawn) [Example 553, 2-[(4-Chloro-benzyl)-(1-{3-[7-(1-hydroxy-1-methyl-ethyl)-11H-10-oxa-1-aza-dibenzo[a,d]cyclohepten-5-ylidene]-propyl}-pyrrolidin-3-yl)-amino]-N-ethyl-acetamide], the half-maximal inhibitory concentration (IC50) was < 1000 nM.

Consider “1-[3-(7-Carbamoylmethyloxy-5,11-dihydro[1]benzoxepino[2,3-b]pyridin-5-ylidene)propyl]-4-(4-chlorophenyl)piperidin-4-ol [Example 181]”, for which the IC50 is < 1000 nM. In the case of `CC(C)(O)c1ccc2c(c1)C(=CCCN1CC[C@@](O)(c3ccc(Cl)cc3)[C@H](C#N)C1)c1cccnc1CO2` (relative stereo) [Example 480, Cis-4-(4-Chloro-phenyl)-4-hydroxy-1-{3-[7-(1-hydroxyl-1-methyl-ethyl)-11H-10-oxa-1-aza-dibenzo[a,d]cyclohepten-5-ylidene]-propyl}-piperidin-3-carbonitrile] it was < 1000 nM; in that of “4-(4-Chlorophenyl)-1-[3-(5,11-dihydro-7-cyclopentyl-oxycarbonyl-[1]benzoxepino[2,3-b]pyridin-5-ylidene) propyl]piperidine-4-ol [Example 429]”, < 1000 nM. In the case of `CC1CN(CCC=C2c3cc(C(C)(C)O)ccc3OCc3ncccc32)CCC1(F)c1ccc(Cl)cc1` (stereo not drawn) [Example 469, 2-(5-{3-[4-(4-Chloro-phenyl)-4-fluoro-3-methyl-piperidin-1-yl]-propylidene}-5,11-dihydro-10-oxa-1-aza-dibenzo[a,d]cyclohepten-7-yl)-propan-2-ol] it was < 1000 nM. As for `CCCCC(CC)C(=O)N(Cc1ccc(Cl)cc1)C1CCN(CCC=C2c3cc(C(C)(C)O)ccc3OCc3ncccc32)C1` (stereo not drawn) [Example 566, 2-Ethyl-hexanoic acid (4-chloro-benzyl)-(1-{3-[7-(1-hydroxy-1-methyl-ethyl)-11H-10-oxa-1-aza-dibenzo[a,d]cyclohepten-5-ylidene]-propyl}-pyrrolidin-3-yl)-amide], the figure is < 20000 nM.

Source of the values: patent US8653096B2, “Chemokine receptor antagonists and methods of use thereof” (Millennium Pharmaceuticals, Inc., priority 2001, dated 2014).
